What was measured:
[1] = test system: Escherichia coli; assay: Antimicrobial activity against Escherichia coli 25922 assessed as absence bacterial growth measured after 18 to 24 hrs incubation in presence of 50% serum by NCCLS method; type: functional; conditions: time 18-24 hrs
[2] = test system: Escherichia coli; assay: Antimicrobial activity against Escherichia coli 25922 assessed as absence bacterial growth measured after 18 to 24 hrs incubation in presence of KCl by NCCLS method; type: functional; conditions: time 18-24 hrs
[3] = test system: Erythrocyte; assay: Hemolytic activity in human RBC at effective concentration measured after 1 hr by microplate reader analysis; type: toxicity, cell-based
[4] = test system: Acinetobacter baumannii; assay: Antimicrobial activity against Acinetobacter baumannii 1.6769 assessed as absence bacterial growth measured after 18 to 24 hrs incubation by NCCLS method; type: functional; conditions: time 18-24 hrs
[5] = test system: Enterococcus faecalis; assay: Antimicrobial activity against Enterococcus faecalis 29212 assessed as absence bacterial growth measured after 18 to 24 hrs incubation by NCCLS method; type: functional; conditions: time 18-24 hrs
[6] = test system: Escherichia coli; assay: Antimicrobial activity against Escherichia coli 25922 assessed as absence bacterial growth measured after 18 to 24 hrs incubation in presence of NH4Cl by NCCLS method; type: functional; conditions: time 18-24 hrs
[7] = Hemolytic activity in human RBC at effective concentration at 128 uM measured after 1 hr by microplate reader relative to control; type: toxicity, cell-based, Erythrocyte; conditions: human red blood cells (erythrocytes), read-out: Activity
[8] = test system: Escherichia coli; assay: Antimicrobial activity against Escherichia coli 25922 assessed as absence bacterial growth measured after 18 to 24 hrs incubation in presence of 25% serum by NCCLS method; type: functional; conditions: time 18-24 hrs
[9] = test system: Salmonella typhimurium; assay: Antimicrobial activity against Salmonella typhimurium 14028 assessed as bacterial killing measured after 16 hrs incubation; type: functional, Salmonella enterica subsp. enterica serovar Typhimurium; conditions: Salmonella enterica
[10] = test system: Escherichia coli; assay: Antimicrobial activity against Escherichia coli K88 assessed as bacterial killing measured after 16 hrs incubation; type: functional
[11] = test system: Escherichia coli; assay: Antimicrobial activity against Escherichia coli 25922 assessed as bacterial killing measured after 16 hrs incubation; type: functional
[12] = test system: Listeria monocytogenes; assay: Antimicrobial activity against Listeria monocytogenes 1.10753 assessed as bacterial killing measured after 16 hrs incubation; type: functional
[13] = test system: Escherichia coli; assay: Antimicrobial activity against Escherichia coli 25922 assessed as absence bacterial growth measured after 18 to 24 hrs incubation by NCCLS method; type: functional; conditions: time 18-24 hrs
[14] = Cytotoxicity against mouse RAW264.7 cells assessed as cell survival rate measured after 8 hrs by MTT assay; type: toxicity, cell-based
[15] = test system: Bacillus cereus; assay: Antimicrobial activity against Bacillus cereus 1.932 assessed as absence bacterial growth measured after 18 to 24 hrs incubation by NCCLS method; type: functional; conditions: time 18-24 hrs
[16] = test system: Salmonella typhimurium; assay: Antimicrobial activity against Salmonella typhimurium 14028 assessed as absence bacterial growth measured after 18 to 24 hrs incubation by NCCLS method; type: functional, Salmonella enterica subsp. enterica serovar Typhimurium; conditions: Salmonella enterica, time 18-24 hrs
[17] = test system: Listeria monocytogenes; assay: Antimicrobial activity against Listeria monocytogenes 1.10753 assessed as absence bacterial growth measured after 18 to 24 hrs incubation by NCCLS method; type: functional; conditions: time 18-24 hrs
[18] = test system: Escherichia coli; assay: Antimicrobial activity against Escherichia coli 25922 assessed as absence bacterial growth measured after 18 to 24 hrs incubation in presence of FeCl3 by NCCLS method; type: functional; conditions: time 18-24 hrs
[19] = test system: Escherichia coli; assay: Antimicrobial activity against Escherichia coli K88 assessed as absence bacterial growth measured after 18 to 24 hrs incubation by NCCLS method; type: functional; conditions: time 18-24 hrs
[20] = test system: Staphylococcus aureus; assay: Antimicrobial activity against Methicillin-resistant Staphylococcus aureus 43300 assessed as absence bacterial growth measured after 18 to 24 hrs incubation by NCCLS method; type: functional; conditions: time 18-24 hrs
[21] = Antimicrobial activity against Salmonella pullorum C7913 assessed as absence bacterial growth measured after 18 to 24 hrs incubation by NCCLS method; type: functional, Salmonella enterica subsp. enterica serovar Pullorum; conditions: Salmonella enterica, time 18-24 hrs
[22] = test system: Pseudomonas aeruginosa; assay: Antimicrobial activity against Pseudomonas aeruginosa 27853 assessed as absence bacterial growth measured after 18 to 24 hrs incubation by NCCLS method; type: functional; conditions: time 18-24 hrs
[23] = test system: Staphylococcus aureus; assay: Antimicrobial activity against Staphylococcus aureus 25923 assessed as bacterial killing measured after 16 hrs incubation; type: functional
[24] = test system: Escherichia coli; assay: Antimicrobial activity against Escherichia coli 25922 assessed as absence bacterial growth measured after 18 to 24 hrs incubation in presence of MgCl2 by NCCLS method; type: functional; conditions: time 18-24 hrs
[25] = test system: Staphylococcus aureus; assay: Antimicrobial activity against Staphylococcus aureus 29213 assessed as absence bacterial growth measured after 18 to 24 hrs incubation by NCCLS m; type: functional; conditions: time 18-24 hrs
[26] = Cytotoxicity against human HEK-293T cells assessed as cell survival rate measured after 8 hrs by MTT assay; type: toxicity, cell-based
[27] = test system: Salmonella typhimurium; assay: Antimicrobial activity against Salmonella typhimurium C7731 assessed as bacterial killing measured after 16 hrs incubation; type: functional, Salmonella enterica subsp. enterica serovar Typhimurium; conditions: Salmonella enterica
[28] = test system: Staphylococcus aureus; assay: Antimicrobial activity against Staphylococcus aureus 29213 assessed as bacterial killing measured after 16 hrs incubation; type: functional
[29] = test system: Escherichia coli; assay: Antimicrobial activity against Escherichia coli 25922 assessed as absence bacterial growth measured after 18 to 24 hrs incubation in presence of 12.5% serum by NCCLS method; type: functional; conditions: time 18-24 hrs
[30] = test system: Staphylococcus aureus; assay: Antimicrobial activity against Methicillin-resistant Staphylococcus aureus 43300 assessed as bacterial killing measured after 16 hrs incubation; type: functional
[31] = test system: Staphylococcus epidermidis; assay: Antimicrobial activity against Staphylococcus epidermidis 12228 assessed as bacterial killing measured after 16 hrs incubation; type: functional
[32] = test system: Escherichia coli; assay: Antimicrobial activity against Escherichia coli 25922 assessed as absence bacterial growth measured after 18 to 24 hrs incubation in presence of ZnCl2 by NCCLS method; type: functional; conditions: time 18-24 hrs
[33] = test system: Salmonella typhimurium; assay: Antimicrobial activity against Salmonella typhimurium C7731 assessed as absence bacterial growth measured after 18 to 24 hrs incubation by NCCLS method; type: functional, Salmonella enterica subsp. enterica serovar Typhimurium; conditions: Salmonella enterica, time 18-24 hrs
[34] = test system: Acinetobacter baumannii; assay: Antimicrobial activity against Acinetobacter baumannii 1.6769 assessed as bacterial killing measured after 16 hrs incubation; type: functional
[35] = test system: Bacillus cereus; assay: Antimicrobial activity against Bacillus cereus 1.932 assessed as bacterial killing measured after 16 hrs incubation; type: functional
[36] = test system: Staphylococcus epidermidis; assay: Antimicrobial activity against Staphylococcus epidermidis 12228 assessed as absence bacterial growth measured after 18 to 24 hrs incubation by NCCLS method; type: functional; conditions: time 18-24 hrs
[37] = test system: Escherichia coli; assay: Antimicrobial activity against Escherichia coli 25922 assessed as absence bacterial growth measured after 18 to 24 hrs incubation in presence of NaCl by NCCLS method; type: functional; conditions: time 18-24 hrs
[38] = test system: Enterococcus faecalis; assay: Antimicrobial activity against Enterococcus faecalis 29212 assessed as bacterial killing measured after 16 hrs incubation; type: functional
[39] = test system: Pseudomonas aeruginosa; assay: Antimicrobial activity against Pseudomonas aeruginosa 27853 assessed as bacterial killing measured after 16 hrs incubation; type: functional
[40] = test system: Staphylococcus aureus; assay: Antimicrobial activity against Staphylococcus aureus 29213 assessed as absence bacterial growth measured after 18 to 24 hrs incubation by NCCLS method; type: functional; conditions: time 18-24 hrs
[41] = Antimicrobial activity against Salmonella pullorum C7913 assessed as bacterial killing measured after 16 hrs incubation; type: functional, Salmonella enterica subsp. enterica serovar Pullorum; conditions: Salmonella enterica
[42] = Cytotoxicity against porcine IPEC-J2 cells assessed as cell survival rate measured after 8 hrs by MTT assay; type: toxicity, cell-based, Sus scrofa; conditions: pig

H-MKLWLKGGKLWLKGGKLWLKG-NH2
1 µM: MIC [19]
16 µM: MBC [9] | MIC [16] | MBC [34] | MIC [37]
8 µM: MIC [4] | MIC [33]
< 10%: hemolysis at 1 h, 128 µM [7]
4 µM: MIC [2] | MIC [6] | MBC [11] | MIC [13] | MIC [18] | MIC [32]
> 64 µM: IC50 at 8 h [14] | IC50 at 8 h [26]
2 µM: MBC [10] | MIC [21] | MBC [41]
128 µM: HC10 [3]
41 µM: IC50 at 8 h [42]
32 µM: MIC [8] | MBC [27] | MIC [29]
> 32 µM: MIC [1] | MIC [5] | MBC [12] | MIC [15] | MIC [17] | MIC [20] | MIC [22] | MBC [23] | MIC [24] | MIC [25] | MBC [28] | MBC [30] | MBC [31] | MBC [35] | MIC [36] | MBC [38] | MBC [39] | MIC [40]

Reference: ChEMBL document CHEMBL5518215, “Unlocking Antibacterial Potential: Key-Site-Based Regulation of Antibacterial Spectrum of Peptides” (J Med Chem, 2024)
